From US9856262B2, “Analogues of 4H-pyrazolo[1,5-a] benzimidazole compound as PARP inhibitors” (HUBEI BIO-PHARMACEUTICAL INDUSTRIAL TECHNOLOGICAL INSTITUTE …, priority 2014, dated 2018)

Key:
PARP-1 = molecular target: T1, PARP-1 (Homo sapiens, UniProt P09874); assay: PARP enzymatic assay (HT Universal Colorimetric PARP1 Assay Kit); type: biochemical; details: read-out: PARP-1 enzymatic inhibition IC50
T1 construct: purchased
Description: PARP Enzymatic Assay (Following the Manual of HT Universal Colorimetric PARP1 Assay Kit).
Histone proteins were coated on a 96-well plate and incubated overnight at 4° C. After be washed 3 times with 200 ul PBST solution, the plate was blocked with a blocking solution and incubated for 30 min at room temperature, and then washed with PBST solution 3 times. A compound to be tested was treated and added to the plate. Thereafter, 20 μl of diluted PARP1 (1 nM) or 20 μl of PARP2 (3 nM) solution was added into the reaction system and incubated for 1 or 2 hours. 50 ul of streptavidin-HRP mixture (1:50) was added into the plate and incubated for 30 min at room temperature. The plate was then washed with three times with PBST buffer. 100 μl of (HRP) (Chemiluminescent substrate A and substrate B (1:1)) was added into the plate, and the plate was immediately read on a microplate reader (Envision, PerkinElmer).

HCC1937 cells = assay: Cellular PARylation assay; type: cell-based; details: Homo sapiens; HCC1937 cells, compound 30 min then 1 mM H2O2 10 min; read-out: cellular PARylation EC50
Description: Cellular PARylation Assay
HCC1937 cells were planted into 96 well plates at 4×10^4 cells/well and incubated at 37° C. in an incubator overnight. After being treated with a test compound for 30 min, cells were then treated with 1 mM H2O2 for 10 min. The cells were washed with 200 ul pre-chilled PBS twice and fixed with 100 ul pre-chilled methanol/acetone (7:3) on ice for 30 min. After being air-dried, the plates were blocked using PBS-Tween blocking solution (0.05%) with dissolved 5% nonfat dry milk for 30 min at room temperature. The cells were incubated with anti-PAR antibody 10H (1:100) at room temperature for 1 hour followed by washing with PBS-Tween20 for 3 times; and then added into a blocking solution including goat anti-mouse fluorescein isothiocyanate (FITC)-coupled secondary antibody and 1 μg/mL DAPI to incubate away from light at room temperature for 1 hour. After being washed with PBS-Tween20 for 3 times, the plate was analyzed with a fluorescence microplate counter (Flexstation III, Molecular Device).

T1 sequence (P09874 whole entry): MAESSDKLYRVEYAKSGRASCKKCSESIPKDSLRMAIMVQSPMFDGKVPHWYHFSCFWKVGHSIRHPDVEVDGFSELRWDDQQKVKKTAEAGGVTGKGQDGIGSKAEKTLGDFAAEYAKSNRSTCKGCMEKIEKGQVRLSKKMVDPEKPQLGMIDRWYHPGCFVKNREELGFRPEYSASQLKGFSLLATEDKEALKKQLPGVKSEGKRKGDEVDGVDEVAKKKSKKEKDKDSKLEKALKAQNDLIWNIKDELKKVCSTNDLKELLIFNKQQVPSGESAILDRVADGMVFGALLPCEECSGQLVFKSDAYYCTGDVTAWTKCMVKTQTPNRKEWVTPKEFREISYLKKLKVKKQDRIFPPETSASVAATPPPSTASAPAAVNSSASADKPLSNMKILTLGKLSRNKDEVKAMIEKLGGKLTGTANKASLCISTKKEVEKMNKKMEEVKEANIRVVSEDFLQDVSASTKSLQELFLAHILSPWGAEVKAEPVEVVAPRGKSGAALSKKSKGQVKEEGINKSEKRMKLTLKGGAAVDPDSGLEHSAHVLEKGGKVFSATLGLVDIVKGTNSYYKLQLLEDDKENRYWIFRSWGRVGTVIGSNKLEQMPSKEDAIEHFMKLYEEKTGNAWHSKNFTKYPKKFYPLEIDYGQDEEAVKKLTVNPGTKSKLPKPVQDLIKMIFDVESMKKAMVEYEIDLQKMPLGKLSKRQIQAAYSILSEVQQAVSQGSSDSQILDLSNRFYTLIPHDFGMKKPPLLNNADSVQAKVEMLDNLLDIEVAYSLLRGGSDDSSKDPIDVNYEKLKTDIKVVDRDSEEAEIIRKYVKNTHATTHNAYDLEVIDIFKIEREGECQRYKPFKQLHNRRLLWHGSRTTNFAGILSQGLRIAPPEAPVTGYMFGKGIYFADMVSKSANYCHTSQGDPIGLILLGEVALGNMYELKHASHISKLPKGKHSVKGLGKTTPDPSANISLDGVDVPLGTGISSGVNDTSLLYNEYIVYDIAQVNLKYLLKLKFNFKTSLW

Compound | IC50 (PARP-1) | EC50 (HCC1937 cells)
CC1(c2cnn3c2[nH]c2cc(F)cc(C(N)=O)c23)CN(CC2CC2)C1 [Example 104, 3-(1-(cyclopropylmethyl)-3-methylazetidin-3-yl)-6-fluoro-4H-benzo[4,5]imidazo[1,2-b]pyrazole-8-carboxamide] | 1 to 100 nM | 1 to 100 nM
CC1(c2cnn3c2[nH]c2cc(F)cc(C(N)=O)c23)CCN(Cc2cccs2)CC1 [Example 77, 6-fluoro-3-(4-methyl-1-(thiophen-2-ylmethyl)piperidin-4-yl)-4H-benzo[4,5]imidazo[1,2-b]pyrazole-8-carboxamide] | 1 to 100 nM | 1 to 100 nM
NCCN1CCC(c2cnn3c2[nH]c2cc(F)cc(C(N)=O)c23)CC1 [Example 13, 3-(1-(2-aminoethyl)piperidin-4-yl)-6-fluoro-4H-benzo[4,5]imidazo[1,2-b]pyrazole-8-carboxamide] | 1 to 100 nM | 101 to 1000 nM
COCCCN1CCC(C)(c2cnn3c2[nH]c2cc(F)cc(C(N)=O)c23)CC1 [Example 72, 6-fluoro-3-(1-(3-methoxypropyl)-4-methylpiperidin-4-yl)-4H-benzo[4,5]imidazo[1,2-b]pyrazole-8-carboxamide] | 1 to 100 nM | 1 to 100 nM
CC1(c2cnn3c2[nH]c2cc(F)cc(C(N)=O)c23)CCN(CC2(C#N)CCC2)CC1 [Example 64, 3-(1-((1-cyanocyclobutyl)methyl)-4-methylpiperidin-4-yl)-6-fluoro-4H-benzo[4,5]imidazo[1,2-b]pyrazole-8-carboxamide] | 1 to 100 nM | 101 to 1000 nM
COCCN1CCC(C)(c2cnn3c2[nH]c2cc(F)cc(C(N)=O)c23)CC1 [Example 69, 6-fluoro-3-(1-(2-methoxyethyl)-4-methylpiperidin-4-yl)-4H-benzo[4,5]imidazo[1,2-b]pyrazole-8-carboxamide] | 1 to 100 nM | 1 to 100 nM
CC1(c2cnn3c2[nH]c2cc(F)cc(C(N)=O)c23)CCN(CCC#N)C1 (stereo not drawn) [Example 103, 3-(1-(2-cyanoethyl)-3-methylpyrrolidin-3-yl)-6-fluoro-4H-benzo[4,5]imidazo[1,2-b]pyrazole-8-carboxamide] | 1 to 100 nM | 101 to 1000 nM
NCc1cnn2c1[nH]c1cc(F)cc(C(N)=O)c12 [Example 39, 3-(aminomethyl)-6-fluoro-4H-benzo[4,5]imidazo[1,2-b]pyrazole-8-carboxamide] | 1 to 100 nM | 101 to 1000 nM
N#Cc1cnn2c1[nH]c1cccc(C(N)=O)c12 [Example 38, 3-cyano-4H-benzo[4,5]imidazo[1,2-b]pyrazole-8-carboxamide] | 101 to 1000 nM | > 1000 nM
CC1(c2cnn3c2[nH]c2cc(F)cc(C(N)=O)c23)CCN(CCC(F)(F)F)C1 (stereo not drawn) [Example 99, 6-fluoro-3-(3-methyl-1-(3,3,3-trifluoropropyl)pyrrolidin-3-yl)-4H-benzo[4,5]imidazo[1,2-b]pyrazole-8-carboxamide] | 1 to 100 nM | 1 to 100 nM
CCN1CC2CC2(c2cnn3c2[nH]c2cc(F)cc(C(N)=O)c23)C1 (stereo not drawn) [Example 29, 3-(3-ethyl-3-azabicyclo[3.1.0]hexan-1-yl)-6-fluoro-4H-benzo[4,5]imidazo[1,2-b]pyrazole-8-carboxamide] | 1 to 100 nM | 1 to 100 nM
NC(=O)c1cc(F)cc2[nH]c3c(C4CCCN4)cnn3c12 (stereo not drawn) [Example 23, 6-fluoro-3-(pyrrolidin-2-yl)-4H-benzo[4,5]imidazo[1,2-b]pyrazole-8-carboxamide] | 1 to 100 nM | 1 to 100 nM
CC1(c2cnn3c2[nH]c2cc(F)cc(C(N)=O)c23)CCS(=O)(=O)CC1 [Example 106, 6-fluoro-3-(4-methyl-1,1-dioxidotetrahydro-2H-thiopyran-4-yl)-4H-benzo[4,5]imidazo[1,2-b]pyrazole-8-carboxamide] | 1 to 100 nM | 101 to 1000 nM
N#Cc1cnn2c1[nH]c1cc(F)cc(C(N)=O)c12 [Example 37, 3-cyano-6-fluoro-4H-benzo[4,5]imidazo[1,2-b]pyrazole-8-carboxamide] | 1 to 100 nM | > 1000 nM
CN1CCC(c2cnn3c2[nH]c2cc(F)cc(C(N)=O)c23)C1 (stereo not drawn) [Example 20, 6-fluoro-3-(1-methylpyrrolidin-3-yl)-4H-benzo[4,5]imidazo[1,2-b]pyrazole-8-carboxamide] | 1 to 100 nM | 1 to 100 nM
CC1(c2cnn3c2[nH]c2cc(F)cc(C(N)=O)c23)CCN(CC2CC2)C1 (stereo not drawn) [Example 93, 3-(1-(cyclopropylmethyl)-3-methylpyrrolidin-3-yl)-6-fluoro-4H-benzo[4,5]imidazo[1,2-b]pyrazole-8-carboxamide] | 1 to 100 nM | 1 to 100 nM
CCN1C2CCC1CC(c1cnn3c1[nH]c1cc(F)cc(C(N)=O)c13)C2 (stereo not drawn) [Example 35, 3-(8-ethyl-8-azabicyclo[3.2.1]octan-3-yl)-6-fluoro-4H-benzo[4,5]imidazo[1,2-b]pyrazole-8-carboxamide] | 1 to 100 nM | 101 to 1000 nM
CCN1CCC(CN2CCC(C)(c3cnn4c3[nH]c3cc(F)cc(C(N)=O)c34)CC2)CC1 [Example 78, 3-(1-((1-ethylpiperidin-4-yl)methyl)-4-methylpiperidin-4-yl)-6-fluoro-4H-benzo[4,5]imidazo[1,2-b]pyrazole-8-carboxamide] | 1 to 100 nM | 1 to 100 nM
NC(=O)c1cc(F)cc2[nH]c3c(C4CCN(C5COC5)CC4)cnn3c12 [Example 11, 6-fluoro-3-(1-(oxetan-3-yl)piperidin-4-yl)-4H-benzo[4,5]imidazo[1,2-b]pyrazole-8-carboxamide] | 1 to 100 nM | 101 to 1000 nM
CCN1CCCC1c1cnn2c1[nH]c1cc(F)cc(C(N)=O)c12 (stereo not drawn) [Example 26, 3-(1-ethylpyrrolidin-2-yl)-6-fluoro-4H-benzo[4,5]imidazo[1,2-b]pyrazole-8-carboxamide] | 1 to 100 nM | 101 to 1000 nM
CC1(c2cnn3c2[nH]c2cc(F)cc(C(N)=O)c23)CCN(CCS(C)(=O)=O)C1 (stereo not drawn) [Example 98, 6-fluoro-3-(3-methyl-1-(2-(methylsulfonyl)ethyl)pyrrolidin-3-yl)-4H-benzo[4,5]imidazo[1,2-b]pyrazole-8-carboxamide] | 1 to 100 nM | 101 to 1000 nM
CC1(c2cnn3c2[nH]c2cc(F)cc(C(N)=O)c23)CCN(CCC#N)CC1 [Example 88, 3-(1-(2-cyanoethyl)-4-methylpiperidin-4-yl)-6-fluoro-4H-benzo[4,5]imidazo[1,2-b]pyrazole-8-carboxamide] | 1 to 100 nM | 1 to 100 nM
CC1(c2cnn3c2[nH]c2cc(F)cc(C(N)=O)c23)CCN(CC2(C#N)CC2)C1 (stereo not drawn) [Example 102, 3-(1-((1-cyanocyclopropyl)methyl)-3-methylpyrrolidin-3-yl)-6-fluoro-4H-benzo[4,5]imidazo[1,2-b]pyrazole-8-carboxamide] | 1 to 100 nM | 101 to 1000 nM
CN1CCCC(c2cnn3c2[nH]c2cc(F)cc(C(N)=O)c23)CC1 (stereo not drawn) [Example 19, 6-fluoro-3-(1-methylazepan-4-yl)-4H-benzo[4,5]imidazo[1,2-b]pyrazole-8-carboxamide] | 1 to 100 nM | 1 to 100 nM
CNCc1ccc(F)c(-c2cnn3c2[nH]c2cc(F)cc(C(N)=O)c23)c1 [Example 44, 6-fluoro-3-(2-fluoro-5-((methylamino)methyl)phenyl)-4H-benzo[4,5]imidazo[1,2-b]pyrazole-8-carboxamide] | 101 to 1000 nM | 101 to 1000 nM
CN1CC2CC2(c2cnn3c2[nH]c2cc(F)cc(C(N)=O)c23)C1 (stereo not drawn) [Example 28, 6-fluoro-3-(3-methyl-3-azabicyclo[3.1.0]hexan-1-yl)-4H-benzo[4,5]imidazo[1,2-b]pyrazole-8-carboxamide] | 1 to 100 nM | 1 to 100 nM
CC1(c2cnn3c2[nH]c2cc(F)cc(C(N)=O)c23)CCN(CCF)C1 (stereo not drawn) [Example 95, 6-fluoro-3-(1-(2-fluoroethyl)-3-methylpyrrolidin-3-yl)-4H-benzo[4,5]imidazo[1,2-b]pyrazole-8-carboxamide] | 1 to 100 nM | 1 to 100 nM
CCN1CCC(C)(c2c(C)nn3c2[nH]c2cc(F)cc(C(N)=O)c23)CC1 [Example 112, 3-(1-ethyl-4-methylpiperidin-4-yl)-6-fluoro-2-methyl-4H-benzo[4,5]imidazo[1,2-b]pyrazole-8-carboxamide] | 1 to 100 nM | 1 to 100 nM
CCN1CCCC(c2cnn3c2[nH]c2cc(F)cc(C(N)=O)c23)C1 (stereo not drawn) [Example 17, 3-(1-ethylpiperidin-3-yl)-6-fluoro-4H-benzo[4,5]imidazo[1,2-b]pyrazole-8-carboxamide] | 1 to 100 nM | 101 to 1000 nM
CC1(c2cnn3c2[nH]c2cc(F)cc(C(N)=O)c23)CCN(CC(F)(F)F)C1 (stereo not drawn) [Example 97, 6-fluoro-3-(3-methyl-1-(2,2,2-trifluoroethyl)pyrrolidin-3-yl)-4H-benzo[4,5]imidazo[1,2-b]pyrazole-8-carboxamide] | 1 to 100 nM | 101 to 1000 nM
